Data taken from patent US20230174488A1 (priority 2020, published 2023).

Each compound was assayed against SARS-CoV-2 M^PRO (Severe acute respiratory syndrome coronavirus 2, UniProt P0DTD1) (assay: biochemical). Conditions: In vitro potency data; 30 min pre-incubation, 25 nM M^pro, 25 µM substrate; listed as INSCoV-601R(lA); read-out: IC50.
Format: biochemical

In the case of `O=C(NC1CCOC1)[C@H](c1cncnc1)N(C(=O)CCl)c1ccc(-c2cncs2)cc1` (some centres unmarked) [INSCoV-601R(1A)], the IC50 is reported as 140 nM.

Same assay, conditions: In vitro potency data; 30 min pre-incubation, 25 nM M^pro, 25 µM substrate; listed as INSCoV-601R(lB); read-out: IC50

`O=C(NC1CCOC1)[C@H](c1cncnc1)N(C(=O)CCl)c1ccc(-c2cncs2)cc1` (some centres unmarked) [INSCoV-601R(1B)] gave an IC50 of 440 nM.

Same assay, conditions: In vitro potency data; 30 min pre-incubation, 25 nM M^pro, 25 µM substrate; read-out: IC50

`COc1ccccc1CCN(C(=O)CCl)C(C(=O)NC1CCCCC1)c1cccnc1` (centres unmarked) [INSCoV-560A, 2-Chloro-N-(2-(Cyclohexylamino)-2-Oxo-1-(Pyridin-3-yl)Ethyl)-N-(2-Methoxyphenethyl)Acetamide] and `O=C(NC1CCCCC1)C(c1cccnc1)N(Cc1ccccc1C(F)(F)F)C(=O)CCl` (centres unmarked) [INSCoV-574A, 2-Chloro-N-(2-(Cyclohexylamino)-2-Oxo-1-(Pyridin-3-yl)Ethyl)-N-(2-(Trifluoromethyl)Benzyl)Acetamide] are within 1.5-fold of each other in IC50: 4340 nM for the first, 4970 nM for the second.

`C#CC(=O)N(c1ccc(C(C)(C)C)cc1)C(C(=O)NC1CCCCC1)c1cccnc1` (centres unmarked) [INSCoV-571] and `O=C(NC1CCCCC1)C(c1cccnc1)N(C(=O)CCl)c1ccc2ccoc2c1` (centres unmarked) [INSCoV-576, 2-[Benzofuran-6-yl-(2-chloroacetyl)amino]-N-cyclohexyl-2-(3-pyridyl)acetamide] are within 1.5-fold of each other in IC50: 6280 nM for the first, 4670 nM for the second.

Going from `O=C(NC1CCCCC1)C(c1cccnc1)N(Cc1cccc(C(F)(F)F)c1)C(=O)CCl` (centres unmarked) [INSCoV-574, 2-Chloro-N-(2-(Cyclohexylamino)-2-Oxo-1-(Pyridin-3-yl)Ethyl)-N-(3-(Trifluoromethyl)Benzyl)Acetamide] to `O=C(NC1CCOCC1)C(c1cccnc1)N(C(=O)CCl)c1ccc(-c2cnco2)cc1` (centres unmarked) [INSCoV-600A(1), 2-Chloro-N-(4-(Oxazol-5-yl)Phenyl)-N-(2-Oxo-1-(Pyridin-3-yl)-2-((Tetrahydro-2H-Pyran-4-yl)Amino)Ethyl)Acetamide], the IC50 falls from 1270 nM to 840 nM (1.5-fold).

Compared with `O=C(NC1CCOCC1)C(c1cncnc1)N(C(=O)CCl)c1ccc(-c2cnco2)cc1` (centres unmarked) [INSCoV-600A(2), 2-Chloro-N-(4-(Oxazol-5-yl)Phenyl)-N-(2-Oxo-1-(Pyrimidin-5-yl)-2-((Tetrahydro-2H-Pyran-4-yl)Amino)Ethyl)Acetamide], `O=C(N[C@H]1CCOC1)C(c1cncnc1)N(C(=O)CCl)c1ccc(-c2cnco2)cc1` (some centres unmarked) [INSCoV-600C(1)] is 1.6-fold lower in IC50: 430 nM for the first, 270 nM for the second.

`O=C(NC1CCOCC1)C(c1cnccn1)N(C(=O)CCl)c1ccc(-c2cnco2)cc1` (centres unmarked) [INSCoV-600A(3), 2-Chloro-N-(4-(Oxazol-5-yl)Phenyl)-N-(2-oxo-1-(Pyrazin-2-yl)-2-((Tetrahydro-2H-Pyran-4-yl)Amino)Ethyl)Acetamide] and `O=C(NC1CCOCC1)C(c1ccnnc1)N(C(=O)CCl)c1ccc(-c2cnco2)cc1` (centres unmarked) [INSCoV-600A] are within 1.5-fold of each other in IC50: 410 nM for the first, 540 nM for the second.

Going from `O=C(N[C@H]1CCC(F)(F)C1)C(c1cncnc1)N(C(=O)CCl)c1ccc(-c2cnco2)cc1` (some centres unmarked) [INSCoV-600B(2)] to `O=C(NC1CCC(F)(F)C1)C(c1cncnc1)N(C(=O)CCl)c1ccc(-c2cnco2)cc1` (centres unmarked) [INSCoV-600B, 2-(N-(2-chloroacetyl)-4-oxazol-5-yl-anilino)-N-(3,3-difluorocyclopentyl)-2-pyrimidin-5-yl-acetamide], the IC50 rises from 190 nM to 290 nM (1.5-fold). The first is the more potent here.

`O=C(N[C@H]1CCOC1)[C@@H](c1cncnc1)N(C(=O)CCl)c1ccc(-c2cnco2)cc1` [INSCoV-600C(1A)] and `O=C(N[C@H]1CCOC1)[C@H](c1cncnc1)N(C(=O)CCl)c1ccc(-c2cnco2)cc1` [INSCoV-600C(1B)] are within 1.5-fold of each other in IC50: 340 nM for the first, 310 nM for the second.

First: O=C(N[C@@H]1CCOC1)C(c1cncnc1)N(C(=O)CCl)c1ccc(-c2cnco2)cc1 (some centres unmarked) [INSCoV-600C(2)]
Second: O=C(N[C@@H]1CCOC1)[C@H](c1cncnc1)N(C(=O)CCl)c1ccc(-c2cnco2)cc1 [INSCoV-600C(2A)]
The IC50 of the first is 2.2-fold lower: 200 nM for the first, 450 nM for the second.

`O=C(N[C@@H]1CCOC1)[C@@H](c1cncnc1)N(C(=O)CCl)c1ccc(-c2cnco2)cc1` [INSCoV-600C(2B)] and `O=C(NC1CCOC1)C(c1cncnc1)N(C(=O)CCl)c1ccc(-c2cnco2)cc1` (centres unmarked) [INSCoV-600C] are within 1.5-fold of each other in IC50: 160 nM for the first, 220 nM for the second.

`O=C(NC1CC(F)(F)C1)C(c1cncnc1)N(C(=O)CCl)c1ccc(-c2cnco2)cc1` (centres unmarked) [INSCoV-600D] and `O=C(NC1CC2(C1)CC(F)(F)C2)C(c1cncnc1)N(C(=O)CCl)c1ccc(-c2cnco2)cc1` (centres unmarked) [INSCoV-600F] are within 1.5-fold of each other in IC50: 520 nM for the first, 530 nM for the second.

First: CC1(NC(=O)C(c2cncnc2)N(C(=O)CCl)c2ccc(-c3cnco3)cc2)COC1 (centres unmarked) [INSCoV-600E, 2-(N-(2-chloroacetyl)-4-oxazol-5-yl-anilino)-N-(3-methyloxetan-3-yl)-2-pyrimidin-5-yl-acetamide]
Second: O=C(NC1CC2(COC2)C1)C(c1cncnc1)N(C(=O)CCl)c1ccc(-c2cnco2)cc1 (centres unmarked) [INSCoV-600G]
The IC50 of the first is 1.7-fold lower: 570 nM for the first, 990 nM for the second. The first is the more potent here.

`O=C(NC1CC2(C1)CS(=O)(=O)C2)C(c1cncnc1)N(C(=O)CCl)c1ccc(-c2cnco2)cc1` (centres unmarked) [INSCoV-600H] and `CN1CCC(NC(=O)C(c2cncnc2)N(C(=O)CCl)c2ccc(-c3cnco3)cc2)CC1` (centres unmarked) [INSCoV-600M, 2-(N-(2-chloroacetyl)-4-oxazol-5-yl-anilino)-N-(1-methyl-4-piperidyl)-2-pyrimidin-5-yl-acetamide] are within 1.5-fold of each other in IC50: 660 nM for the first, 500 nM for the second.

Going from `O=C(NC1CCC(F)(F)CC1)C(c1cncnc1)N(C(=O)CCl)c1ccc(-c2ccno2)cc1` (centres unmarked) [INSCoV-600J, 2-Chloro-N-(2-((4,4-difluorocyclohexyl)amino)-2-oxo-1-(pyrimidin-5-yl)ethyl)-N-(4-(isoxazol-5-yl)phenyl)acetamide] to `O=C(NC1CCC(F)(F)CC1)C(c1cncnc1)N(C(=O)C1CO1)c1ccc(-c2ccno2)cc1` (centres unmarked) [INSCoV-600Y, N-(2-((4,4-Difluorocyclohexyl)Amino)-2-Oxo-1-(Pyrimidin-5-yl)Ethyl)-N-(4-(Isoxazol-5-yl)Phenyl)Oxirane-2-Carboxamide], the IC50 rises from 110 nM to 1990 nM (18-fold).

Going from `O=C(NC1CCC(F)(F)CC1)C(c1cncnc1)N(C(=O)CCl)c1ccc(-c2ccncn2)cc1` (centres unmarked) [INSCoV-600L, 2-(N-(2-chloroacetyl)-4-pyrimidin-4-yl-anilino)-N-(4,4-difluorocyclohexyl)-2-pyrimidin-5-yl-acetamide] to `O=C(NC1CCC(F)(F)CC1)[C@@H](c1cncnc1)N(C(=O)CCl)c1ccc(-c2ccccc2)cc1` [INSCoV-601L], the IC50 falls from 450 nM to 300 nM (1.5-fold).

`Cc1cc(F)cc(F)c1NC(=O)C(c1cncnc1)N(C(=O)CCl)c1ccc(-c2cnco2)cc1` (centres unmarked) [INSCoV-600N] and `Cc1cc(-c2cccnc2)cc(F)c1NC(=O)C(c1cncnc1)N(C(=O)CCl)c1ccc(-c2cnco2)cc1` (centres unmarked) [INSCoV-600X] are within 1.5-fold of each other in IC50: 1060 nM for the first, 1390 nM for the second.

Going from `O=C(NC1CCC(F)(F)CC1)[C@H](c1cncnc1)N(CCc1cccc(F)c1)C(=O)C1CO1` (some centres unmarked) [INSCoV-600Q(1)] to `O=C(NC1CCC(F)(F)CC1)[C@@H](c1cncnc1)N(CCc1cccc(F)c1)C(=O)C1CO1` (some centres unmarked) [INSCoV-600Q(2)], the IC50 falls from 22600 nM to 2220 nM (10-fold).

Compared with `O=C(NC1CCC(F)(F)CC1)C(c1cncnc1)N(CCc1cccc(F)c1)C(=O)C1CO1` (centres unmarked) [INSCoV-600Q], `O=C(NC1CCC(F)(F)CC1)C(c1cncnc1)N(C(=O)[C@H]1CO1)c1ccc(-c2cnco2)cc1` (some centres unmarked) [INSCoV-600R(1)] is 2.9-fold higher in IC50: 6980 nM for the first, 19900 nM for the second. The first is the more potent here.

Compared with `O=C(NC1CCC(F)(F)CC1)[C@H](c1cncnc1)N(C(=O)[C@H]1CO1)c1ccc(-c2cnco2)cc1` [INSCoV-600R(1A)], `O=C(NC1CCC(F)(F)CC1)C(c1cncnc1)N(C(=O)[C@@H]1CO1)c1ccc(-c2cnco2)cc1` (some centres unmarked) [INSCoV-600R(2)] is lower in IC50: > 25000 nM for the first, 6450 nM for the second. The second is the more potent here.

Going from `O=C(NC1CCC(F)(F)CC1)[C@@H](c1cncnc1)N(C(=O)[C@@H]1CO1)c1ccc(-c2cnco2)cc1` [INSCoV-600R(2B)] to `O=C(NC1CCC(F)(F)CC1)C(c1cncnc1)N(C(=O)C1CO1)c1ccc(-c2cnco2)cc1` (centres unmarked) [INSCoV-600R], the IC50 falls from > 25000 nM to 12800 nM.

Compared with `CN(C)C(=O)C1CCCC(NC(=O)C(c2cncnc2)N(C(=O)CCl)c2ccc(-c3cnco3)cc2)C1` (centres unmarked) [INSCoV-601CA], `O=C(NC1CCOC1)[C@H](c1cncnc1)N(C(=O)CCl)c1ccc(-c2cncs2)cc1` (some centres unmarked) [INSCoV-601R] is 9.6-fold lower in IC50: 1150 nM for the first, 120 nM for the second. The second is the more potent here.

Compared with `O=C(NC1CCC(F)(F)CC1)C(c1ccnnc1)N(C(=O)CCl)c1ccc(-c2cncs2)cc1` (centres unmarked) [INSCoV-601F, 2-Chloro-N-(2-((4,4-Difluorocyclohexyl)Amino)-2-Oxo-1-(Pvridazin-4-vl)Ethyl)-N-(4-(Thiazol-5-vl)Phenyl)Acetamide], `O=C(NC1CCC(F)(F)CC1)[C@H](c1ccnnc1)N(C(=O)CCl)c1ccc(-c2ccns2)cc1` [INSCoV-601J(2)] is 4.1-fold higher in IC50: 130 nM for the first, 530 nM for the second.

Compared with `CC(=O)c1ccc(NC(=O)[C@@H](c2cnccn2)N(C(=O)CCl)c2ccc(-c3ccns3)cc2)[nH]1` [INSCoV-601M], `COC(=O)c1ccc(NC(=O)[C@H](c2cncnc2)N(C(=O)CCl)c2ccc(-c3cncs3)cc2)[nH]1` [INSCoV-601T] is 6.8-fold lower in IC50: 1150 nM for the first, 170 nM for the second. The second is the more potent here.

First: CC(C)c1cc(F)c(NC(=O)[C@@H](c2cncnc2)N(C(=O)CCl)c2ccc(-c3ccns3)cc2)c(F)c1 [INSCoV-601O]
Second: O=C(NC1CCC(F)(F)C1)C(c1cncnc1)N(C(=O)CCl)c1ccc(-c2cncs2)cc1 (centres unmarked) [INSCoV-601S]
The IC50 of the first is 34-fold higher: 3060 nM for the first, 90 nM for the second.

Going from `CC(C(=O)NC1CCC(F)(F)CC1)(c1cncnc1)N(C(=O)CCl)c1ccc(-c2ccno2)cc1` (centres unmarked) [INSCoV-601P, 2-(2-Chloro-N-(4-(isoxazol-5-yl)phenyl)acetamido)-N-(4,4-difluorocyclohexyl)-2-(pyrimidin-5-yl)propanamide] to `O=C(NC1CCC(F)(F)CC1)C(c1cncnc1)N(C(=O)CF)c1ccc(-c2cncs2)cc1` (centres unmarked) [INSCoV-615], the IC50 rises from 380 nM to 11400 nM (30-fold).

Compared with `N#CCC(=O)N(c1ccc(-c2cncs2)cc1)[C@H](C(=O)NC1CCC(F)(F)CC1)c1cncnc1` [INSCoV-612], `O=C(NC1CCC(F)(F)CC1)C(c1cncnc1)N(C(=O)C(F)Cl)c1ccc(-c2cncs2)cc1` (centres unmarked) [INSCoV-614, 2-Chloro-N-(2-((4,4-difluorocyclohexyl)amino)-2-oxo-1-(pyrimidin-5-yl)ethyl)-2-fluoro-N-(4-(thiazol-5-yl)phenyl)acetamide] is 70-fold lower in IC50: 23200 nM for the first, 330 nM for the second. The second is the more potent here.

Compound `C=C(F)C(=O)N(c1ccc(-c2cncs2)cc1)C(C(=O)NC1CCC(F)(F)CC1)c1cncnc1` (centres unmarked) [INSCoV-616] has an IC50 of 8360 nM.
